Experiments:
Type in all cases: functional, cell-based
MDA-MB-231 = experiment: Cytostatic activity against human breast cancer MDA-MB-231 cell line
PC-3 = experiment: Cytostatic activity against human prostate cancer PC3 cell line
T-24 = experiment: Cytostatic activity against human bladder cancer T24 cell line

EC50 (MDA-MB-231)	EC50 (PC-3)	EC50 (T-24)	SMILES
4.8 µM	11 µM	4 µM	C[C@H](NP(=O)(OCC1OC(n2cc(/C=C/Br)c(=O)[nH]c2=O)CC1O)Oc1cccc2ccccc12)C(=O)OC(C)(C)C (stereo partly specified)
1.96 µM	5.8 µM	269 µM	O=C(OCc1ccccc1)[C@H](Cc1ccccc1)NP(=O)(OCC1OC(n2cc(/C=C/Br)c(=O)[nH]c2=O)CC1O)Oc1cccc2ccccc12 (stereo partly specified)
0.32 µM	65.9 µM		COC(=O)C(C)(C)NP(=O)(OC[C@H]1O[C@@H](n2cc(/C=C/Br)c(=O)[nH]c2=O)C[C@@H]1O)Oc1cccc2ccccc12 (stereo partly specified)
130 µM	1.4 µM		CCC(C)[C@H](NP(=O)(OC[C@H]1O[C@@H](n2cc(/C=C/Br)c(=O)[nH]c2=O)C[C@@H]1O)Oc1cccc2ccccc12)C(=O)OCc1ccccc1 (stereo partly specified)
2.7 µM	1.5 µM		CC(C)(NP(=O)(OC[C@H]1O[C@@H](n2cc(/C=C/Br)c(=O)[nH]c2=O)C[C@@H]1O)Oc1cccc2ccccc12)C(=O)OCc1ccccc1 (stereo partly specified)
105 µM	1.7 µM		COC(=O)[C@@H](NP(=O)(OCC1OC(n2cc(/C=C/Br)c(=O)[nH]c2=O)CC1O)Oc1cccc2ccccc12)c1ccccc1 (stereo partly specified)
28.1 µM	44.6 µM	19.6 µM	COC(=O)[C@H](CCSC)NP(=O)(OCC1OC(n2cc(/C=C/Br)c(=O)[nH]c2=O)CC1O)Oc1cccc2ccccc12 (stereo partly specified)
6.3 µM	6.1 µM	2.8 µM	C[C@@H](NP(=O)(OCC1OC(n2cc(/C=C/Br)c(=O)[nH]c2=O)CC1O)Oc1cccc2ccccc12)C(=O)OCc1ccccc1 (stereo partly specified)
1.5 µM	6.9 µM		CCC(C)[C@H](NP(=O)(OC[C@H]1O[C@@H](n2cc(/C=C/Br)c(=O)[nH]c2=O)C[C@@H]1O)Oc1cccc2ccccc12)C(=O)OC (stereo partly specified)
5.9 µM	8.3 µM	12.7 µM	CC(C)[C@H](NP(=O)(OCC1OC(n2cc(/C=C/Br)c(=O)[nH]c2=O)CC1O)Oc1cccc2ccccc12)C(=O)OCc1ccccc1 (stereo partly specified)
8.5 µM	10.2 µM	5.3 µM	COC(=O)[C@H](Cc1ccccc1)NP(=O)(OCC1OC(n2cc(/C=C/Br)c(=O)[nH]c2=O)CC1O)Oc1cccc2ccccc12 (stereo partly specified)

SMILES	EC50 (MDA-MB-231)	EC50 (PC-3)	EC50 (T-24)
COC(=O)[C@H](C(C)C)P(=O)(OCC1OC(n2cc(/C=C/Br)c(=O)[nH]c2=O)CC1O)Oc1cccc2ccccc12 (stereo partly specified)	14.8 µM	15.8 µM	43.5 µM
C[C@H](NP(=O)(O)Oc1cccc2ccccc12)C(=O)OCc1ccccc1	15.2 µM	1.7 µM	
COC(=O)[C@@H]1CCCN1P(=O)(OCC1OC(n2cc(/C=C/Br)c(=O)[nH]c2=O)CC1O)Oc1cccc2ccccc12 (stereo partly specified)	6.5 µM	10.5 µM	0.4 µM

From ChEMBL document CHEMBL1148610, “Novel potential anticancer naphthyl phosphoramidates of BVdU: separation of diastereoisomers and assignment of the absolute configuration of the phosphorus center” (J Med Chem, 2006)
